The supplement of paper PMC10307832

Tests used:
Test in all cases: relative viability (nuclei count vs DMSO), 5 days (fraction); higher = more cells survive
[1] = compound: COc1cc2ncn(-c3cc(OCc4ccccc4C(F)(F)F)c(C(N)=O)s3)c2cc1OC + Cc1nc(NC(=O)N2CCC[C@H]2C(N)=O)sc1-c1ccnc(C(C)(C)C(F)(F)F)c1 [Alpelisib] (partner 2 µM)
In short: (§1)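 Lung cancer cell lines were pin-tool dosed in 1536-well plates on the day after seeding, with either a lone drug or a fixed anchor-drug dose plus five library-drug doses (not always all listed) in √10 steps. Nuclei were counted on 4× images after 5 days. Relative viability is the ratio of treated-well to vehicle-well nuclei counts, with each value a median of duplicate plates.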

[2] = compound: COc1cc2ncn(-c3cc(OCc4ccccc4C(F)(F)F)c(C(N)=O)s3)c2cc1OC + O=C(CCCCCCC(=O)Nc1ccccc1)NO [Vorinostat] (partner 1 µM)
In short: as §1

[3] = compound: COc1cc2ncn(-c3cc(OCc4ccccc4C(F)(F)F)c(C(N)=O)s3)c2cc1OC + CC1(C)CCC(c2ccc(Cl)cc2)=C(CN2CCN(c3ccc(C(=O)NS(=O)(=O)c4ccc(N[C@H](CCN5CCOCC5)CSc5ccccc5)c(S(=O)(=O)C(F)(F)F)c4)cc3)CC2)C1 [Navitoclax] (partner 0.5 µM)
In short: as §1

[4] = compound: COc1cc2ncn(-c3cc(OCc4ccccc4C(F)(F)F)c(C(N)=O)s3)c2cc1OC + C[C@]1(O)C[C@@H](c2nc(-c3ccc4ccc(-c5ccccc5)nc4c3)c3c(N)nccn32)C1 [Linsitinib] (partner 1 µM)
In short: as §1

Cell Line	relative viability ([1]; first compound 0.05 µM)	relative viability ([1]; first compound 0.1581 µM)	relative viability ([1]; first compound 0.5 µM)	relative viability ([1]; first compound 1.581 µM)	relative viability ([1]; first compound 5 µM)	relative viability ([2]; first compound 0.05 µM)	relative viability ([2]; first compound 0.1581 µM)	relative viability ([2]; first compound 0.5 µM)	relative viability ([2]; first compound 1.581 µM)	relative viability ([2]; first compound 5 µM)	relative viability ([3]; first compound 0.05 µM)	relative viability ([3]; first compound 0.1581 µM)	relative viability ([3]; first compound 0.5 µM)	relative viability ([3]; first compound 1.581 µM)	relative viability ([3]; first compound 5 µM)	relative viability ([4]; first compound 0.05 µM)	relative viability ([4]; first compound 0.1581 µM)	relative viability ([4]; first compound 0.5 µM)	relative viability ([4]; first compound 1.581 µM)	relative viability ([4]; first compound 5 µM)
LCLC-97TM1	0.244	0.238	0.144	0.139	0.127	0.803	0.822	0.0658	0.0665	0.0652	0.4	0.502	0.307	0.141	0.0841	0.203	0.182	0.122	0.141	0.115
HARA	0.894	0.764	0.712	0.176	0.0641	0.358	0.421	0.237	0.0932	0.0592	1.18	1.06	0.531	0.26	0.0692	0.958	0.842	0.834	0.208	0.0806
HCC-78	0.371	0.402	0.289	0.206	0.27	0.483	0.396	0.281	0.261	0.223	0.752	0.773	0.498	0.51	0.63	0.537	0.597	0.368	0.315	0.394
NCI-H1666	1.22	0.834	0.493	0.29	0.292	0.954	0.998	0.584	0.561	0.527	0.814	1.05	0.308	0.225	0.205	0.821	0.953	0.37	0.219	0.248
NCI-H2347	0.896	0.92	0.813	0.581	0.735	0.551	0.658	0.407	0.445	0.302	0.78	1.01	0.566	0.38	0.579	0.99	0.915	0.84	0.572	0.759
PC-14	0.833	0.944	0.768	0.0614	0.135	0.662	0.655	0.141	0.0309	0.0197	1.03	0.97	0.407	0.151	0.273	1.05	0.906	0.463		0.106
NCI-H2023	0.547	0.634	0.61	0.0955	0.0801	0.544	0.711	0.168	0.107	0.0613	0.977	1.1	0.867	0.0884	0.0956	0.593	0.769	0.49	0.123	0.0804
201T	1	1.08	0.984	0.475	0.297	1.01	0.994	0.815	0.283	0.195	1.26	1.2	1.19	0.902	0.326	1.05	0.983	0.971	0.46	0.262
NCI-H1915	1.05	0.987	0.775	0.161	0.104	0.497	0.582	0.352	0.0829	0.0666	0.758	0.739	0.539	0.0643	0.0409	1.09	1.05	0.795	0.169	0.106
NCI-H2009	1.07	1.05	0.667	0.169	0.154	0.667	0.607	0.302	0.0531	0.0578	1.14	1.07	0.666	0.0806	0.0608	1.19	1.11	0.918	0.208	0.22
BEN	1.18	1	0.81	0.262	0.391	0.643	0.591	0.413	0.33	0.3	0.0682	0.0597	0.0733	0.0523	0.0519	0.931	0.875	0.648	0.235	0.297
PC-3 [JPC-3]	0.983	0.98	0.707	0.307	0.318	0.907	0.82	0.515	0.464	0.31	0.757	0.715	0.471	0.27	0.238	0.91	0.945	0.744	0.309	0.286
SK-MES-1	0.924	0.883	0.639	0.148	0.553	1.06	1.01	0.212	0.174	0.147	1.14	1.25	0.519	0.119	0.127	1.03	1.01	0.745		0.362
NCI-H838	1.25	1.02	0.956	0.36	0.142	0.577	0.801	0.477	0.13	0.132	1.2	1.23	0.733	0.15	0.135	1.15	1.04	0.873	0.178	0.105
NCI-H1355	0.879	0.827	0.669	0.208	0.143	0.592	0.624	0.457	0.154	0.13	1.04	0.914	0.536	0.177	0.136	0.857	0.863	0.617	0.203	0.156
NCI-H1975	0.645	0.609	0.359	0.153	0.152	0.501	0.631	0.272	0.166	0.134	0.88	1.01	0.529	0.168	0.174	1.01	0.877	0.531	0.207	0.196
LK-2	1.13	0.957	0.575	0.298	0.263	0.241	0.159	0.125	0.124	0.12	0.867	0.732	0.266	0.117	0.133	0.591	0.413	0.284	0.182	0.165
NCI-H727	0.545	0.695	0.41	0.282	0.247	1.28	1.14	0.673	0.579	0.591	0.457	0.618	0.464	0.166	0.185	0.321	0.283	0.166	0.186	0.305
HCC-366	0.656	0.246	0.123	0.0134	0.0086	0.347	0.3	0.0923	0.0208	0.0152	1.03	1.03	0.313	0.0106	0.0086	0.837	0.635	0.114	0.0118	0.0055

Cell Line	relative viability ([1]; first compound 0.05 µM)	relative viability ([1]; first compound 0.1581 µM)	relative viability ([1]; first compound 0.5 µM)	relative viability ([1]; first compound 1.581 µM)	relative viability ([1]; first compound 5 µM)	relative viability ([2]; first compound 0.05 µM)	relative viability ([2]; first compound 0.1581 µM)	relative viability ([2]; first compound 0.5 µM)	relative viability ([2]; first compound 1.581 µM)	relative viability ([2]; first compound 5 µM)	relative viability ([3]; first compound 0.05 µM)	relative viability ([3]; first compound 0.1581 µM)	relative viability ([3]; first compound 0.5 µM)	relative viability ([3]; first compound 1.581 µM)	relative viability ([3]; first compound 5 µM)	relative viability ([4]; first compound 0.05 µM)	relative viability ([4]; first compound 0.1581 µM)	relative viability ([4]; first compound 0.5 µM)	relative viability ([4]; first compound 1.581 µM)	relative viability ([4]; first compound 5 µM)
HOP-62	1.02	0.837	0.752	0.199	0.116	0.687	0.706	0.202	0.129	0.0896	0.92	0.984	0.843	0.232	0.814	0.95	0.966	0.547	0.116	0.0914
NCI-H1944	0.871	0.901	0.619	0.173	0.118	0.609	0.602	0.456	0.166	0.127	1.04	1.06	0.785	0.189	0.123	1.2	1.15	0.923	0.257	0.171
NCI-H650	1.11	1.1	0.698	0.185	0.29	0.425	0.438	0.279	0.137	0.143						0.896	1.17	0.505	0.118	0.171
EBC-1	0.82	0.682	0.235	0.207	0.194						0.36	0.283	0.123	0.119	0.153	0.798	0.889	0.446	0.169	0.134
NCI-H1648						0.37	0.523	0.203	0.267	0.186										
SW 900						0.483	0.417	0.416	0.287	0.154										
ABC-1	1.25	1.02	0.786	0.316	0.319	1.59	0.849	0.58	0.369	0.305						0.862	0.874	0.582	0.302	0.218
NCI-H1792	0.732	0.659	0.501	0.31	0.364						0.633	0.627	0.604	0.188	0.13	0.517	0.531	0.301	0.216	0.148
NCI-H1563	0.953	1.02	0.917	0.745	0.599											1.22	1.18	1.22	1.21	0.799
NCI-H1299	1.04	0.979	0.788	0.326	0.654						1.06	1.09	0.833	0.232	0.238	0.984	1.12	0.636	0.245	0.253
ChaGo-K-1						0.775	0.721	0.629	0.232	0.162	0.964	0.535	0.939	0.378	0.273					
NCI-H2170	0.789	0.799	0.41	0.176	0.18	0.834	0.725	0.386	0.128	0.125	0.539	0.492	0.202	0.168	0.162					
NCI-H522						0.962	1.1	0.733	0.292	0.237										
A549	0.802	0.753	0.186	0.0572	0.0466						1.25	1.19	0.294	0.0413	0.0332	0.63	0.714	0.386	0.0698	0.29
NCI-H358	0.852	1	0.386	0.127	0.177	0.589	0.541	0.0993	0.0786	0.0711						0.693	0.678	0.349	0.155	0.141
NCI-H661	0.855	0.367	0.499	0.26	0.224	0.843	0.753	0.293	0.269	0.223						0.513	0.526	0.39	0.247	0.174
LCLC-103H	0.966	1.04	0.997	0.389	0.248	0.808	0.799	0.327	0.261	0.199						1.21	1.09	0.841	0.53	0.344
NCI-H1650						0.484	0.555	0.36	0.154	0.133	1.29	1.2	0.471	0.153	0.121					
Calu-6	0.92	0.67	0.23	0.128	0.112						0.693	0.513	0.136	0.0798	0.0903	0.976	0.843	0.257	0.0961	0.0852
